Test results as given in ChEMBL document CHEMBL3885881, “DrugMatrix”.

Species: Rattus norvegicus
Experiment: DrugMatrix - Regimen: Daily Repeat
Format: toxicity, organism-based, Sprague-Dawley
Parameters: regimen Daily Repeat, gender Male, age 6-8 weeks
Settings: in vivo, po, 25 mg/kg, route oral GAVAGE, dose level Low, […]; for ABSOLUTE BASOPHIL / ABSOLUTE EOSINOPHIL / ABSOLUTE LYMPHOCYTE / ABSOLUTE MONOCYTE / ABSOLUTE SEGMENTED NEUTROPHIL / BASOPHIL / EOSINOPHIL / ERYTHROCYTE COUNT / HEMATOCRIT / HEMOGLOBIN / LEUKOCYTE COUNT / LYMPHOCYTE / MEAN CORPUSCULAR HEMOGLOBIN / MEAN CORPUSCULAR HEMOGLOBIN CONCENTRATION / MEAN CORPUSCULAR VOLUME / MONOCYTE / NEUTROPHIL / NUCLEATED RED BLOOD CELLS / PLATELET COUNT: tissue Blood; for ALANINE AMINOTRANSFERASE / ALBUMIN / ALKALINE PHOSPHATASE / ASPARTATE AMINOTRANSFERASE / BLOOD UREA NITROGEN / CARBON DIOXIDE / CHLORIDE / CHOLESTEROL / CREATINE PHOSPHOKINASE / CREATININE / GLUCOSE / LACTATE DEHYDROGENASE / LIPASE / PHOSPHORUS / POTASSIUM / SODIUM / TOTAL BILIRUBIN / TOTAL PROTEIN / URIC ACID: tissue Plasma

O=c1ccc2ccccc2o1 [COUMARIN]
ABSOLUTE BASOPHIL (72 h, time 3 day): 0 CELLS/uL | ABSOLUTE EOSINOPHIL (72 h, time 3 day): 0 CELLS/uL | ABSOLUTE LYMPHOCYTE (72 h, time 3 day): 13415.67 CELLS/uL | ABSOLUTE MONOCYTE (72 h, time 3 day): 244.67 CELLS/uL | ABSOLUTE SEGMENTED NEUTROPHIL (72 h, time 3 day): 973 CELLS/uL | BASOPHIL (72 h, time 3 day): 0% | EOSINOPHIL (72 h, time 3 day): 0% | ERYTHROCYTE COUNT (72 h, time 3 day): 5.76 x10E6/uL | HEMATOCRIT (72 h, time 3 day): 36.97% | HEMOGLOBIN (72 h, time 3 day): 14.6 G/DL | LEUKOCYTE COUNT (72 h, time 3 day): 14.63 x10E3/uL | LYMPHOCYTE (72 h, time 3 day): 92% | MEAN CORPUSCULAR HEMOGLOBIN (72 h, time 3 day): 25.4 pg | MEAN CORPUSCULAR HEMOGLOBIN CONCENTRATION (72 h, time 3 day): 39.5 G/DL | MEAN CORPUSCULAR VOLUME (72 h, time 3 day): 64.27 fL | MONOCYTE (72 h, time 3 day): 1.67% | NEUTROPHIL (72 h, time 3 day): 6.33% | NUCLEATED RED BLOOD CELLS (72 h, time 3 day): 0 /100WBC | PLATELET COUNT (72 h, time 3 day): 1015 x10E3/uL | ALANINE AMINOTRANSFERASE (72 h, time 3 day): 75 u/L | ALBUMIN (72 h, time 3 day): 4.13 G/DL | ALKALINE PHOSPHATASE (72 h, time 3 day): 469.67 u/L | ASPARTATE AMINOTRANSFERASE (72 h, time 3 day): 106.33 u/L | BLOOD UREA NITROGEN (72 h, time 3 day): 10.67 mg/dL | CARBON DIOXIDE (72 h, time 3 day): 33.67 mmol/L | CHLORIDE (72 h, time 3 day): 101.67 MEQ/L | CHOLESTEROL (72 h, time 3 day): 71.67 mg/dL | CREATINE PHOSPHOKINASE (72 h, time 3 day): 272.67 u/L | CREATININE (72 h, time 3 day): 0.12 mg/dL | GLUCOSE (72 h, time 3 day): 148 mg/dL | LACTATE DEHYDROGENASE (72 h, time 3 day): 117 u/L | LIPASE (72 h, time 3 day): 13.67 u/L | PHOSPHORUS (72 h, time 3 day): 11.83 mg/dL | POTASSIUM (72 h, time 3 day): 6.75 MEQ/L | SODIUM (72 h, time 3 day): 146.1 MEQ/L | TOTAL BILIRUBIN (72 h, time 3 day): 0.13 mg/dL | TOTAL PROTEIN (72 h, time 3 day): 5.1 G/DL | URIC ACID (72 h, time 3 day): 1.27 mg/dL | ABSOLUTE BASOPHIL (120 h, time 5 day): 0 CELLS/uL | ABSOLUTE EOSINOPHIL (120 h, time 5 day): 0 CELLS/uL | ABSOLUTE LYMPHOCYTE (120 h, time 5 day): 11975.33 CELLS/uL | ABSOLUTE MONOCYTE (120 h, time 5 day): 0 CELLS/uL | ABSOLUTE SEGMENTED NEUTROPHIL (120 h, time 5 day): 1091.33 CELLS/uL | BASOPHIL (120 h, time 5 day): 0% | EOSINOPHIL (120 h, time 5 day): 0% | ERYTHROCYTE COUNT (120 h, time 5 day): 5.78 x10E6/uL | HEMATOCRIT (120 h, time 5 day): 36.27% | HEMOGLOBIN (120 h, time 5 day): 14.1 G/DL | LEUKOCYTE COUNT (120 h, time 5 day): 13.07 x10E3/uL | LYMPHOCYTE (120 h, time 5 day): 91.33% | MEAN CORPUSCULAR HEMOGLOBIN (120 h, time 5 day): 24.4 pg | MEAN CORPUSCULAR HEMOGLOBIN CONCENTRATION (120 h, time 5 day): 38.9 G/DL | MEAN CORPUSCULAR VOLUME (120 h, time 5 day): 62.7 fL | MONOCYTE (120 h, time 5 day): 0% | NEUTROPHIL (120 h, time 5 day): 8.67% | NUCLEATED RED BLOOD CELLS (120 h, time 5 day): 0 /100WBC | PLATELET COUNT (120 h, time 5 day): 1251 x10E3/uL | ALANINE AMINOTRANSFERASE (120 h, time 5 day): 69 u/L | ALBUMIN (120 h, time 5 day): 4.17 G/DL | ALKALINE PHOSPHATASE (120 h, time 5 day): 466 u/L | ASPARTATE AMINOTRANSFERASE (120 h, time 5 day): 95.67 u/L | BLOOD UREA NITROGEN (120 h, time 5 day): 13.33 mg/dL | CARBON DIOXIDE (120 h, time 5 day): 27 mmol/L | CHLORIDE (120 h, time 5 day): 102.67 MEQ/L | CHOLESTEROL (120 h, time 5 day): 64.33 mg/dL | CREATINE PHOSPHOKINASE (120 h, time 5 day): 297 u/L | CREATININE (120 h, time 5 day): 0.17 mg/dL | GLUCOSE (120 h, time 5 day): 157.33 mg/dL | LACTATE DEHYDROGENASE (120 h, time 5 day): 402.33 u/L | LIPASE (120 h, time 5 day): 12.33 u/L | PHOSPHORUS (120 h, time 5 day): 12 mg/dL | POTASSIUM (120 h, time 5 day): 6.55 MEQ/L | SODIUM (120 h, time 5 day): 143.47 MEQ/L | TOTAL BILIRUBIN (120 h, time 5 day): 0.23 mg/dL | TOTAL PROTEIN (120 h, time 5 day): 5.73 G/DL | URIC ACID (120 h, time 5 day): 1.8 mg/dL
